Entries after “also recorded” stand apart in the source; their conditions may differ.
What was measured:
[1] = system: human VLDLR gene expression in SNU601 and MKN74 cells; test: RT-PCR analysis of human VLDLR expression in gastric cancer cells treated with 5-aza-dC and/or TSA; format: cell-based
Source text: An empty pGL3 basic vector (mock) and constructs each comprising a different one of 3 sequences (fragments 1 to 3) upstream or in the proximity of VLDLR exon 1 were separately introduced into SNU601 and MKN74 cells. Luciferase activity was normalized relative to that of an internal control. Data shown in FIG. 3B contains mean values±SEMs of triplicate experiments of 3 different constructs. […] Arrows indicate fragments that were digested with restriction enzymes in a specific manner at sites recognized as methylated CpGs. […] With the use of two fragments (BS-1 and BS-2), all of the 71 CpG sites were subjected to sequencing. Squares represent CpG sites (white square: unmethylated site; and black square: methylated site).
The human VLDLR gene expression was examined in the cases in which CpG islands of the human VLDLR gene in gastric cancer cells were demethylated. Specifically, gastric cancer cells were treated in the presence of 5-aza-dC (serving as a transmethylase inhibitor) at different concentrations for 5 days, followed by determination of the capacity of inducing human VLDLR mRNA. […] RT-PCR was carried out with the use of two types of specific primers used for amplification of human VLDLR gene, followed by electrophoresis. GAPDH was used as an internal control. […]

[2] = system: CpG islands of the human VLDLR gene in gastric cancer cells; test: Demethylation of VLDLR CpG islands by culturing gastric cancer cells with 5-aza-dC; format: cell-based; details: gastric cancer cells cultured in the presence of 5-aza-dC
Source text: In addition, the extent of methylation of the CpG islands strongly correlated with inhibition of the expression of the human VLDLR gene in some gastric cancer cells.

Row | SMILES | human VLDLR mRNA expression after 5-aza-dC treatment ([1]; SNU601 and MKN74 cells (no VLDLR expression, no homozygous deletion), 5-aza-dC for 5 days (10 μM in FIG. 3A legend)) | demethylation of CpG islands of the human VLDLR gene [2] | human VLDLR gene expression level in the presence of TSA ([1]; SNU601 and MKN74 cells with densely methylated VLDLR CpG islands, TSA (10 ng/ml in FIG. 3A legend))
1 | Nc1ncn([C@H]2C[C@H](O)[C@@H](CO)O2)c(=O)n1 [5-aza-dC, 5-azadeoxycytidine] | possible to recover the expression level of the human VLDLR gene; also recorded: found to have the capacity of inducing human VLDLR mRNA | possible to demetylate such CpG islands | 
2 | CC(/C=C/C(=O)NO)=C\[C@@H](C)C(=O)c1ccc(N(C)C)cc1 [TSA, trichostatin A] |  |  | equivalent to that obtained in the absence of TSA

Source: patent publication US20090054245A1, “Method for detecting gastric cancer by detecting VLDLR gene” (FUJIFILM Corporation, priority 2006, published 2009)
